Test results taken from paper PMC7997032, “Organic synthesis and anti-influenza A virus activity of cyclobakuchiols A, B, C, and D” (PLoS ONE, 2021).
Values joined by “and” are separate entries in the source; they are usually repeats but may differ in a detail not shown here. Equal entries are not always repeated.

Legend:
A/PR/8/34 virus [1] = assay: Influenza A viral growth assay (viral titer of culture media); assay type: cell-based, influenza A H1N1 virus; parameters: viral titer of culture media, individual replicate / viral titer of culture media, ave: unit not given here; details: A/PR/8/34 (PR8), 12.5uM, average of #1-3 exp (n=9)
A/WSN/33 virus [2] = assay: as above; assay type: cell-based, influenza A H1N1 virus; details: A/WSN/33 (WSN), 12.5uM, average of #1-3 exp (n=9)
A/PR/8/34 virus [3] = assay: RT-qPCR of viral mRNAs (NP, NS1, PA, PB1, PB2, M2) in infected MDCK cells; assay type: cell-based, influenza A H1N1 virus
A/PR/8/34 virus [4] = assay type: cell-based; details: 12.5 μM, 24h WB
[5] = test system: canine interferon-β (Ifn-β); assay: RT-qPCR of Ifn-β mRNA in MDCK cells with or without A/PR/8/34 virus; assay type: cell-based; details: 12.5uM, relative to virus - DMSO; for MDCK IFN-b mRNA, ave: ave of #1-3 exp; for MDCK IFN-b mRNA, individual replicates: replicates 1-3 of #1, #2, #3 exp, listed as Cyclobakuchiol D
[6] = test system: NAD(P)H quinone oxidoreductase 1 (Nqo1); assay: RT-qPCR of Nqo1 mRNA in MDCK cells with or without A/PR/8/34 virus; assay type: cell-based, canine; details: 12.5uM, MDCK, relative to virus - DMSO; for NQO1 Canis lupus mRNA, ave: ave of #1-3 exp; for NQO1 Canis lupus mRNA, individual replicates: replicates 1-3 of #1, #2, #3 exp, listed as Cyclobakuchiol D
Nrf2 = Nrf2 reporter assay (dual luciferase system) in MDCK cells; assay type: cell-based, canine
A/PR/8/34 virus [7] = assay: Immunofluorescence staining of viral NP in influenza A virus-infected MDCK cells; details: for NP/DAPI (%) ave: average of 9 wells
Protocol: (§1) MDCK cells were seeded on a 96-well plate at 1 × 10^4 cells/well. […] Each mixture was added to the cells at 37°C in the presence of 5% CO2. […] After influenza A viral infection for 24 h, the cells were fixed with 4% paraformaldehyde in phosphate-buffered saline (PBS) for 30 min at 4°C and subsequently permeabilized by the addition of 0.3% Triton X-100 for 20 min at 25°C. A mouse primary antibody was used to detect the NP of A/PR/8/34 or A/WSN/33 viruses (FluA-NP 4F1; SouthernBiotech, AL, USA). Alexa Fluor488-conjugated goat anti-mouse IgG (H + L) antibody (Thermo Fisher Scientific) was used as the secondary antibody. Cell nuclei were then stained using diamidino-2-phenylindole (DAPI) (Thermo Fisher Scientific). Wells were photographed using a fluorescence microscope (BIOREVO BZ-X700; Keyence, Osaka, Japan). The proportion of influenza A NP-positive cells per DAPI-positive cells was calculated based on measurements recorded using BZ-X Analyzer software (Keyence).

A/WSN/33 virus [8] = assay: as above; details: WSN
Protocol: as §1

[9] = MDCK cells, PR8 virus, relative to DMSO (about 1), ave of #1-3 exp (9 values)
[10] = MDCK cells, PR8 virus, relative to DMSO, replicates 1-3 of #1, #2, #3 exp, listed as Cyclobakuchiol D
[11] = single experiment, listed as cyclo D

How did the “viral titer of culture media, ave” value (A/PR/8/34 virus [1]; 12h) turn out when C=C[C@]1(C)CCC(C(C)(C)O)C(c2ccc(O)cc2)C1 (stereo in doubt) [cyclobakuchiol D] was run?
The value was 23333.3.

What about the “viral titer of culture media, ave” value (A/PR/8/34 virus [1]; 24h) of the same compound?
Its value is 46666.7.

And the “viral titer of culture media, ave” value (A/PR/8/34 virus [1]; 48h)?
Its value is 42222.2.

And the “viral titer of culture media, ave” value (A/PR/8/34 virus [1]; 72h)?
The value was 51111.1.

What about the “viral titer of culture media, ave” value (A/WSN/33 virus [2]; 12h) of the same compound?
Its value is 10344.4.

And the “viral titer of culture media, ave” value (A/WSN/33 virus [2]; 24h)?
The value was 25855556.

What about the “viral titer of culture media, ave” value (A/WSN/33 virus [2]; 48h) of the same compound?
The value was 191111111.

What about the “viral titer of culture media, ave” value (A/WSN/33 virus [2]; 72h) of the same compound?
Its value is 140200000.

What about the “PR8 NP gene expression qPCR, ave” value (A/PR/8/34 virus [3]; MDCK PR8, NP mRNA, relative (DMSO about 1), average of #1-3 exp (n=9)) of the same compound?
The value was 0.07153.

And the “PR8 NP gene expression qPCR, individual replicate” value (A/PR/8/34 virus [3]; MDCK PR8, NP mRNA, relative (DMSO about 1), replicates of #1-3 exp, listed as Cyclobakuchiol D)?
The value was 0.03886 and 0.05994 and 0.05606 and 0.05458 and 0.125 and 0.1151 and 0.1425 and 0.0275 and 0.02409.

What about the “PR8 NS1 gene expression qPCR, ave” value (A/PR/8/34 virus [3]; MDCK PR8, NS1 mRNA, relative (DMSO about 1), average of #1-3 exp (n=9)) of the same compound?
Its value is 0.04518.

And the “PR8 NS1 gene expression qPCR, individual replicate” value (A/PR/8/34 virus [3]; MDCK PR8, NS1 mRNA, relative (DMSO about 1), replicates of #1-3 exp, listed as Cyclobakuchiol D)?
Its value is 0.02832 and 0.04013 and 0.04518 and 0.04355 and 0.06568 and 0.06468 and 0.07589 and 0.02316 and 0.02.

What about the “PR8 PA gene expression qPCR, ave” value (A/PR/8/34 virus [3]; MDCK PR8, PA mRNA, relative (DMSO about 1), average of #1-3 exp (n=9)) of the same compound?
Its value is 0.04749.

And the “PR8 PA gene expression qPCR, individual replicate” value (A/PR/8/34 virus [3]; MDCK PR8, PA mRNA, relative (DMSO about 1), replicates of #1-3 exp, listed as Cyclobakuchiol D)?
Its value is 0.03007 and 0.03859 and 0.03028 and 0.03293 and 0.08115 and 0.07941 and 0.08873 and 0.02395 and 0.02226.

What about the “PR8 M2 gene expression qPCR, ave” value (A/PR/8/34 virus [3]; [9]) of the same compound?
Its value is 0.04919.

What about the “PR8 PB1 gene expression qPCR, ave” value (A/PR/8/34 virus [3]; [9]) of the same compound?
Its value is 0.04173.

And the “PR8 PB2 gene expression qPCR, ave” value (A/PR/8/34 virus [3]; [9])?
Its value is 0.05311.

What about the “PR8 M2 gene expression qPCR, individual replicates” value (A/PR/8/34 virus [3]; [10]) of the same compound?
The value was 0.03101 and 0.05567 and 0.03306 and 0.04539 and 0.07613 and 0.07839 and 0.08038 and 0.02111 and 0.02153.

And the “PR8 PB1 gene expression qPCR, individual replicates” value (A/PR/8/34 virus [3]; [10])?
Its value is 0.03148 and 0.02292 and 0.01741 and 0.02275 and 0.0784 and 0.07991 and 0.07514 and 0.02623 and 0.02132.

And the “PR8 PB2 gene expression qPCR, individual replicates” value (A/PR/8/34 virus [3]; [10])?
Its value is 0.03118 and 0.04821 and 0.03936 and 0.04228 and 0.08338 and 0.07806 and 0.1008 and 0.0302 and 0.02454.

And the NP/b-actin ave (A/PR/8/34 virus [4]; average of 3 experiments)?
The NP/b-actin ave was 0.8053.

And the NS1/b-actin ave (A/PR/8/34 virus [4]; average of 3 experiments)?
Its NS1/b-actin ave is 0.5049.

What about the “NP mean (western blot signal intensity, ImageJ)” value (A/PR/8/34 virus [4]; [11]) of the same compound?
Its value is 94.385 and 99.104 and 119.4.

What about the NP/b-actin (A/PR/8/34 virus [4]; [11]) of the same compound?
The NP/b-actin was 0.9145 and 0.7726 and 0.7289.

And the NS1/b-actin (A/PR/8/34 virus [4]; [11])?
The NS1/b-actin was 0.4761 and 0.5377 and 0.5009.

And the “NS1 mean (western blot signal intensity, ImageJ)” value (A/PR/8/34 virus [4]; [11])?
The value was 65.696 and 68.111 and 62.157.

What about the “MDCK IFN-b mRNA, ave” value ([5]; virus +) of the same compound?
The value was 17.4654.

And the “MDCK IFN-b mRNA, individual replicates” value ([5]; virus +)?
The value was 2.418 and 33.9435 and 15.7832 and 32.7435 and 6.882 and 51.6835 and 8.73 and 2.955 and 2.05.

What about the “MDCK IFN-b mRNA, ave” value ([5]; virus -) of the same compound?
The value was 2.784.

What about the “MDCK IFN-b mRNA, individual replicates” value ([5]; virus -) of the same compound?
The value was 0.8154 and 7.71 and 7.894 and 3.201 and 1.087 and 1.374 and 1.346 and 0.9591 and 0.6654.

And the “NQO1 Canis lupus mRNA, ave” value ([6]; virus + (PR8))?
Its value is 1.2349.

And the “NQO1 Canis lupus mRNA, individual replicates” value ([6]; virus + (PR8))?
The value was 1.289 and 1.376 and 1.34 and 1.5629 and 0.8611 and 0.8923 and 0.9522 and 1.447 and 1.3929.

And the “NQO1 Canis lupus mRNA, ave” value ([6]; virus -)?
Its value is 1.178.

And the “NQO1 Canis lupus mRNA, individual replicates” value ([6]; virus -)?
The value was 1.099 and 1.305 and 1.308 and 1.291 and 1.087 and 1.132 and 1.031 and 1.075 and 1.276.

And the “Nrf2 activation (reporter assay) in contrast to DMSO” value (Nrf2; 12.5 μM, 24 h, MDCK cells)?
The value was “did not induce Nrf2 activation”.

What about the “pNQO1-ARE-Luc NRF2 reporter assay, ave” value (Nrf2; 12.5uM, relative to DMSO trans+, ave of #1-3 exp) of the same compound?
The value was 1.2008.

And the “pNQO1-ARE-Luc NRF2 reporter assay, individual replicates” value (Nrf2; 12.5uM, relative to DMSO trans+, two values each of #1, #2, #3 exp, listed as Cyclobakuchiol D)?
The value was 1.181 and 1.006 and 1.453 and 1.158 and 1.274 and 1.134.

What about the “NP/DAPI (%) ave” value (A/PR/8/34 virus [7]; A/PR/8/34, 3.13 uM) of the same compound?
The value was 8.962%.

And the “NP (NP-positive cell count)” value (A/PR/8/34 virus [7]; A/PR/8/34, 3.13 uM, single well, listed as Cyclobaku. D)?
Its value is 26 and 38 and 24 and 36 and 32 and 28 and 35 and 30.

And the “NP/DAPI (%) ave” value (A/PR/8/34 virus [7]; A/PR/8/34, 6.25 uM)?
Its value is 5.506%.

And the “NP/DAPI (%) ave” value (A/PR/8/34 virus [7]; A/PR/8/34, 12.5 uM)?
Its value is 1.974%.

And the “NP/DAPI (%) ave” value (A/PR/8/34 virus [7]; A/PR/8/34, 25 uM)?
The value was 1.609%.

What about the IC50 (A/PR/8/34 virus [7]; Influenza A virus, PR/8, MDCK, read-out: half maximal (50%) inhibitory concentration (IC50)) of the same compound?
The IC50 was 8.8 ± 2.4 µM.

What about the “NP/DAPI (%) ave” value (A/WSN/33 virus [8]; 3.13uM, ave of 9 values (3 exp)) of the same compound?
The value was 30.4806%.

What about the “NP/DAPI (%) ave” value (A/WSN/33 virus [8]; 6.25uM, ave of 9 values (3 exp)) of the same compound?
The value was 29.9222%.

And the “NP/DAPI (%) ave” value (A/WSN/33 virus [8]; 12.5uM, ave of 9 values (3 exp))?
The value was 34.4723%.

What about the “NP/DAPI (%) ave” value (A/WSN/33 virus [8]; 25uM, ave of 9 values (3 exp)) of the same compound?
Its value is 38.5623%.

What about the “NP/DAPI (%) ave” value (A/WSN/33 virus [8]; ave summary, 3.13%) of the same compound?
The value was 30.4806%.

And the “NP/DAPI (%) ave” value (A/WSN/33 virus [8]; ave summary, 6.25%)?
The value was 29.9222%.

And the “NP/DAPI (%) ave” value (A/WSN/33 virus [8]; ave summary, 12.50%)?
Its value is 34.4723%.

And the “NP/DAPI (%) ave” value (A/WSN/33 virus [8]; ave summary, 25%)?
The value was 38.5623%.
